Data reported in patent publication US20100009936A1, “CHEMICAL COMPOUNDS” (PRAECIS PHARMACEUTICALS INCORPORATED, priority 2006, published 2010).

Key:
S1P-1 receptor [1] = target: T1, S1P-1 receptor (Homo sapiens, UniProt P21453); assay: [33P]sphingosine 1-phosphate binding assay, S1P-1 receptor; parameters: expressed in transfected cells; host or cells: HEK 293 T cells (transient, FuGENE 6), crude membranes
Experimental: In certain embodiments, the compounds of the invention selective for the S1P-1 receptor as compared to one or more of the other S1P receptors. For example, one set of compounds includes compounds which are selective for the S1P-1 receptor relative to the S1P-3 receptor. […] The EC50 of a compound is determined using the ^35S-GTPγS binding assay, as described in WO 03/061567, the entire contents of which are incorporated herein by reference. […] The IC50 of a compound is determined using the [^33P]sphingosine 1-phosphate binding assay, as described in Davis, M. D. et al., Sphingosine 1-Phosphate Analogs as Receptor Antagonists. J. Biol. Chem. (2005) 280:9833-9841, the entire contents of which are incorporated herein by this reference.
The terms “agonist” or “S1P-1 receptor agonist” as used herein include the compounds described herein which bind to and/or agonize the S1P-1 receptor. […] The compounds' IC50 for the S1P-1 receptor can be measured using the binding assays described in Example 13 or those described in WO 03/061567.
The ability of several of the compounds described herein to bind to the S1P-1 or S1P-3 receptor was also tested as follows.
For the membrane preparation, plasmid DNA was transfected into HEK 293 T cells using the FuGENE 6 transfection protocol (publicly available from Roche). […] Protein concentration was determined spectroscopically by Bradford protein assay. […]

C57Bl/6 mice = assay: Lymphopenia assay in mice; type: in vivo; settings: 10 mg/Kg oral dose, male C57Bl/6 mice, blood taken after 6 hours
Experimental: Several of the compounds described herein were evaluated for the ability to induce lymphopenia in mice. Male C57Bl/6 mice were divided into groups of three. A control group received the 3% BSA vehicle only. The other groups received a single dose of either a specified dose of test compound in vehicle administered orally (PO) and intravenously (IV). After 6 hours, the mice were anesthetized with isoflurane and approximately 250 μL of blood was removed from the retroorbital sinus and collected in an EDTA microtainer, mixed with an anticoagulant and placed on a tilt table until complete blood count (CBC) analysis.

human S1P3 receptor = target: T2, human S1P3 receptor (Homo sapiens, UniProt Q99500); assay: GTPgS assay, S1P3; type: biochemical; settings: [35S]-GTPgS, membranes of RBL cells expressing human S1P3; tested as trifluoracetic acid salt; read-out: pEC50 in the S1P3 assay (converted)
T2 construct: expressed in transfected cells; membranes
T2 sequence (Q99500 whole entry): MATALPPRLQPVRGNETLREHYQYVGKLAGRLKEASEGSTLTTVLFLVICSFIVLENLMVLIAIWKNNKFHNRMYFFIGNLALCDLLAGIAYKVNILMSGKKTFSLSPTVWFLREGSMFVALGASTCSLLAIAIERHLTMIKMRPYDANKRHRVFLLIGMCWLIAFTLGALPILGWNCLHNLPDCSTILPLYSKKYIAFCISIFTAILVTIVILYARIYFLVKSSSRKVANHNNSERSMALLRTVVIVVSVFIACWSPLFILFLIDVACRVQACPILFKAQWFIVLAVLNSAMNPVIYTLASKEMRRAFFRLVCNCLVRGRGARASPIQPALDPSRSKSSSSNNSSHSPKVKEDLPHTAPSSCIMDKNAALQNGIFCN
Experimental: (§1) For membrane preparations all steps were performed at 4° C. Rat hepatoma cells stably expressing the human S1P1 receptor or Rat Basophilic Leukaemia cells (RBL) stably expressing human S1P3 receptor were grown to 80% confluency before being harvested into 10 ml Phospho-Buffered Saline (PBS) and centrifuged at 1200 rpm for 5 minutes. After removal of the supernatant, the pellet was re-suspended and cells were homogenised within a glass Waring blender for 2 bursts of 15 secs in 200 mls of buffer (50 mM HEPES, […], 25 ug/ml bacitracin, 1 mM EDTA, 1 mM PMSF, 2 uM pepstatin A). The blender was plunged into ice for 5 mins after the first burst and 10-40 mins after the final burst to allow foam to dissipate. The material was then spun at 500 g for 20 mins and the supernatant spun for 36 mins at 48,000 g. The pellet was resuspended in the same buffer as above but without PMSF and pepstatin A. The material was then forced through a 0.6 mm needle, made up to the required volume, (usually ×4 the volume of the original cell pellet), aliquoted and stored frozen at −80° C. […]
(§2) After 30 minutes pre-coupling at 4° C. the bead and membrane suspension was dispensed into a white Greiner polypropylene LV384-well plate (5 ul/well), containing 0.1 ul of test compound or S1P. […] The final assay cocktail (10.1 ul) was centrifuged at 1000 rpm for 5 minutes then read immediately on a Viewlux. […]

S1P-1 receptor [2] = target: T1, S1P-1 receptor; assay: GTPgS assay, S1P1; type: biochemical; parameters: expressed in transfected cells; membranes; settings: [35S]-GTPgS, membranes of rat hepatoma cells expressing human S1P1; tested as trifluoracetic acid salt; read-out: pEC50 in the S1P1 assay (converted)
Experimental: as §1, §2

T1 sequence (P21453 whole entry): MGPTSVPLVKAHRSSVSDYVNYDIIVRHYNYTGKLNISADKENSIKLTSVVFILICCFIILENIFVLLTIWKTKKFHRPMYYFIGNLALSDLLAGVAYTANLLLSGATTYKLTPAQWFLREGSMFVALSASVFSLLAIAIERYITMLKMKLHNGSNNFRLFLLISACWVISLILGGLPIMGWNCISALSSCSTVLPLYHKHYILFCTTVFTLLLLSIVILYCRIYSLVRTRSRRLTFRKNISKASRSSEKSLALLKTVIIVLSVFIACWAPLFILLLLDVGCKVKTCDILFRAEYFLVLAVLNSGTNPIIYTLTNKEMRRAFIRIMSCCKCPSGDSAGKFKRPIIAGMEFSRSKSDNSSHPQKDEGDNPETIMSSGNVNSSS

Structure (SMILES)	IC50 (S1P-1 receptor [1]) [nM]	EC50 (human S1P3 receptor) [nM]	EC50 (S1P-1 receptor [2]) [nM]	lymphopenia (C57Bl/6 mice) [%]
C[C@](N)(COP(=O)(O)O)c1nnc(-c2ccc(OCCCCc3ccccc3)c(C(F)(F)F)c2)s1	3.23			
CCCCCCCCOc1ccc(-c2cnc([C@@](C)(N)CO)s2)cc1C(F)(F)F [(S)-2-amino-2-(5-(4-(octyloxy)-3-(trifluoromethyl)phenyl)thiazol-2-yl)propan-1-ol]				75
CCCCCCCCOc1ccc(-c2nnc([C@@](C)(N)CO)s2)cc1C(F)(F)F [(S)-2-amino-2-(5-(4-(octyloxy)-3-(trifluoromethyl)phenyl)-1,3,4-thiadiazol-2-yl)propan-1-ol]				77

Further lines, with some results ahead:

IC50 (S1P-1 receptor [1]) [nM]	EC50 (human S1P3 receptor) [nM]	EC50 (S1P-1 receptor [2]) [nM]	Structure (SMILES)	lymphopenia (C57Bl/6 mice) [%]
	316	3.16	CCCCCCCCOc1ccc(-c2cnc([C@@](C)(N)COP(=O)(O)O)s2)cc1C(F)(F)F [(S)-2-amino-2-(5-(4-(octyloxy)-3-(trifluoromethyl)phenyl)thiazol-2-yl)propyl dihydrogen phosphate]	
	794	0.631	CCCCCCCCOc1ccc(-c2nnc([C@@](C)(N)COP(=O)(O)O)s2)cc1C(F)(F)F [(S)-2-Amino-2-(5-(4-(octyloxy)-3-(trifluoromethyl)phenyl)-1,3,4-thiadiazol-2-yl)propyl dihydrogen phosphate]	
